{
  "source": "ChEMBL document CHEMBL3507680",
  "about": "“University of Dundee, Gates Library screen for HepG2 cell viability”",
  "data": [
    {"experiment": "Human HepG2 cell viability assay in 384 well format", "format": "toxicity, cell-based", "design": "dose 125 nL, time 70.5 hour; concentration not given beside the values", "details": "HepG2 cells, read-out: Inhibition", "units": {"cytotoxicity at 70.5 h": "%"}, "values": [
      {"molecule": "Cc1cnn(CCNCc2nccn2CC(F)(F)F)c1", "cytotoxicity at 70.5 h": 1.15},
      {"molecule": "CC(=O)N1CCCN(C(=O)NCCc2cc(Cl)cc(Cl)c2)CC1", "cytotoxicity at 70.5 h": -6.77},
      {"molecule": "N#Cc1ccc(N2CCC(c3nccn3Cc3cscn3)CC2)nc1", "cytotoxicity at 70.5 h": -0.885},
      {"molecule": "COc1c(CNC2CCc3cc(C)ccc32)c(C)nn1C", "note": "(stereo not drawn)", "cytotoxicity at 70.5 h": -1.11},
      {"molecule": "Cn1cc(NC(=O)N2CCC2c2ccccc2)ccc1=O", "note": "(stereo not drawn)", "cytotoxicity at 70.5 h": -4.87},
      {"molecule": "CNC(=O)CN(C)C(=O)Cc1csc(C(C)C)n1", "cytotoxicity at 70.5 h": 0.629},
      {"molecule": "CCN1CCC2(CCC(=O)N2Cc2cccc(C)n2)CC1", "cytotoxicity at 70.5 h": -4.89},
      {"molecule": "O=C(Nc1cc(C(F)(F)F)c[nH]c1=O)N1CCSCC1", "cytotoxicity at 70.5 h": -8.45},
      {"molecule": "Cc1oc(C(=O)O)cc1S(=O)(=O)Nc1c(F)cccc1-n1cccn1", "cytotoxicity at 70.5 h": -0.99},
      {"molecule": "COc1ccc(C(=O)N(CCC#N)Cc2ccccn2)cc1", "cytotoxicity at 70.5 h": -2.45},
      {"molecule": "O=C(c1ccc(-c2cccc3c2CCNC3)o1)N1CCCCC1", "cytotoxicity at 70.5 h": -3.94},
      {"molecule": "CCc1noc(C)c1C(=O)N1CCCN(Cc2cscn2)CC1", "cytotoxicity at 70.5 h": -10.2},
      {"molecule": "CCN1C[C@@H]2[C@@H](OC)CCN(C(=O)c3cc(C)nn3CC)[C@@H]2C1", "cytotoxicity at 70.5 h": 8.5},
      {"molecule": "CC(NC(=O)Cc1cccs1)(C(N)=O)c1cccc(Cl)c1", "note": "(stereo not drawn)", "cytotoxicity at 70.5 h": 1.57},
      {"molecule": "CN(C)c1cc(C2CCCN2C(=O)c2noc3c2CCCC3)ccn1", "note": "(stereo not drawn)", "cytotoxicity at 70.5 h": -6.7},
      {"molecule": "CC1N(CC2CC2)C(=O)COC12CCN(C(=O)c1ccncc1)CC2", "note": "(stereo not drawn)", "cytotoxicity at 70.5 h": -1.87},
      {"molecule": "OCCCN(CCn1cncn1)c1ccccc1", "cytotoxicity at 70.5 h": 30.6},
      {"molecule": "CN(C)c1ncccc1CNC(=O)NCc1ccco1", "cytotoxicity at 70.5 h": 0.432},
      {"molecule": "NC(=O)CN1CC2(CCC1=O)CCN(Cc1ccccc1F)CC2", "cytotoxicity at 70.5 h": -5.65},
      {"molecule": "CC1c2ncc(CNC(=O)C3CC3)n2CCN1CC1CCC1", "note": "(stereo not drawn)", "cytotoxicity at 70.5 h": -10.3},
      {"molecule": "O=C1CCC2(CCCN(C(=O)c3cccs3)C2)N1", "note": "(stereo not drawn)", "cytotoxicity at 70.5 h": 35.1},
      {"molecule": "Cc1noc(CN(CCc2ccco2)Cc2cccc(C#N)c2)n1", "cytotoxicity at 70.5 h": 2.9},
      {"molecule": "Cc1nn(C)c(N2CCOCC2)c1CNCc1nccs1", "cytotoxicity at 70.5 h": -6.17},
      {"molecule": "CNC(=O)NC(=O)CN(C)C(c1cccnc1)c1ccc(F)cc1F", "note": "(stereo not drawn)", "cytotoxicity at 70.5 h": -1.87},
      {"molecule": "CN1CCN(C(=O)C2(S(C)(=O)=O)CCCC2)Cc2ccccc21", "cytotoxicity at 70.5 h": -13.4},
      {"molecule": "Cc1nc(C(NC(=O)CN(C)C(C)C)c2ccccc2F)no1", "note": "(stereo not drawn)", "cytotoxicity at 70.5 h": -4.07},
      {"molecule": "O=C1CSCN1CC(=O)N1CCCC1c1nc2ccccc2s1", "note": "(stereo not drawn)", "cytotoxicity at 70.5 h": 2.26},
      {"molecule": "COc1ccc(-c2csc(N)c2C#N)cc1OC", "cytotoxicity at 70.5 h": -13},
      {"molecule": "CC(Cn1ccnc1)NC(=O)C1(c2ccc(F)cc2)CC1", "note": "(stereo not drawn)", "cytotoxicity at 70.5 h": -8.11},
      {"molecule": "Cc1ccc(N2CCC(CCN3CCCC3=O)CC2)nn1", "cytotoxicity at 70.5 h": -22},
      {"molecule": "Cn1c(=O)c2c(c3ccccc31)OC(C)(C)CC2", "cytotoxicity at 70.5 h": -9.34},
      {"molecule": "CCS(=O)(=O)N1CCC(NCC2CNc3cc(C)nn3C2)CC1", "note": "(stereo not drawn)", "cytotoxicity at 70.5 h": 19.2},
      {"molecule": "CNC(=O)C1CCCCN1C(=O)c1cn(CCOC)c2ccccc12", "note": "(stereo not drawn)", "cytotoxicity at 70.5 h": 0.571},
      {"molecule": "O=C(NCC1(O)COCCN(Cc2cccc(O)c2)C1)c1cnccn1", "note": "(stereo not drawn)", "cytotoxicity at 70.5 h": -3.85},
      {"molecule": "Cn1cccc1C(=O)COc1ccc(S(N)(=O)=O)cc1", "cytotoxicity at 70.5 h": 0.32},
      {"molecule": "COc1cc(C(=O)N2CCCS2(=O)=O)ccc1C", "cytotoxicity at 70.5 h": 18.4},
      {"molecule": "O=C(N1CCCC1)N1CCN(Cc2cccnc2)c2ncccc2C1", "cytotoxicity at 70.5 h": -10.8},
      {"molecule": "c1cncc(CN2CCN3C[C@H](Oc4cncnc4)C[C@H]3C2)c1", "cytotoxicity at 70.5 h": -5.49},
      {"molecule": "Fc1ccc(Cn2ncc3c2CN(c2ncccn2)C3)cc1", "cytotoxicity at 70.5 h": -0.987},
      {"molecule": "O=C(Cc1ccc2c(c1)OCC2)Nc1nn[nH]n1", "cytotoxicity at 70.5 h": -8.8},
      {"molecule": "CCOc1cccc(CNC(=O)CN2CCC3(CCOC3)C2)c1", "note": "(stereo not drawn)", "cytotoxicity at 70.5 h": -6.18},
      {"molecule": "Cc1nn(C)cc1C1SCC(=O)Nc2c1c(O)nn2C(C)C", "note": "(stereo not drawn)", "cytotoxicity at 70.5 h": -31.1},
      {"molecule": "COCCNc1nc2c(c(NCc3cnc(C)c(C)c3)n1)CCNCC2", "cytotoxicity at 70.5 h": -3.2},
      {"molecule": "COCC1(C(=O)N[C@H]2CN(c3ccnc(C)c3)C[C@@H]2C2CC2)CCC1", "cytotoxicity at 70.5 h": -8.46},
      {"molecule": "O=C(c1ccccc1-n1cnnn1)N1CCC2(CC1)OCCO2", "cytotoxicity at 70.5 h": -1.41},
      {"molecule": "O=C(NCCSCc1cccs1)C1CCCN(C(=O)N2CCCC2)C1", "note": "(stereo not drawn)", "cytotoxicity at 70.5 h": -6.45},
      {"molecule": "COCCN1CCC2(CC1)CC(CC(N)=O)c1ccc(F)cc12", "note": "(stereo not drawn)", "cytotoxicity at 70.5 h": 1.63},
      {"molecule": "Cc1nc(CN2CCCN(CCCc3ccccc3)CC2)no1", "cytotoxicity at 70.5 h": -7.12},
      {"molecule": "Cc1cc(NCc2ccco2)nc2[nH]nc(N)c12", "cytotoxicity at 70.5 h": -3.79},
      {"molecule": "CC(C)CN1CC(C(=O)N(C)CCc2cn[nH]c2)CC1=O", "note": "(stereo not drawn)", "cytotoxicity at 70.5 h": -6.49},
      {"molecule": "Cc1ccc(C(C)NC(=O)CSCC(N)=O)cc1", "note": "(stereo not drawn)", "cytotoxicity at 70.5 h": -0.981},
      {"molecule": "O=C(CS(=O)(=O)Cc1ccc(F)cc1)NCc1ccccc1F", "cytotoxicity at 70.5 h": -8.79},
      {"molecule": "Cc1ccc2c(n1)N(CC1CC1)CCN(C(=O)c1ccncc1F)C2", "cytotoxicity at 70.5 h": 0.364},
      {"molecule": "COc1ccc(C(=O)Nc2c(C)nn(C(C)C)c2C)cc1", "cytotoxicity at 70.5 h": 23.1},
      {"molecule": "Cc1ncc2c(n1)CN(CC(=O)Nc1nnc(C)s1)CC2", "cytotoxicity at 70.5 h": -8.66},
      {"molecule": "Cn1cc(CCC(=O)N2C[C@@H]3CC[C@H](C2)N(Cc2ccccn2)C3)cn1", "cytotoxicity at 70.5 h": -14},
      {"molecule": "COc1ccc(CCNCc2c(C)nn(C)c2N(C)C)cc1OC", "cytotoxicity at 70.5 h": -1.22},
      {"molecule": "Cc1ccc(Nc2cc(N3CCN(S(C)(=O)=O)CC3)nc(C)n2)cc1", "cytotoxicity at 70.5 h": -17.3}
    ]}
  ]
}
